System: p21
Test: p21 expression in NB4 cells treated with HDAC inhibitors
Type: cell-based
Conditions: with p21-shRNA or scramble shRNA
Description: FIGS. 9A-9C. […] (FIG. 9B) NB4 cells were infected with SCR (control) or P21 shRNA, and knockdown was monitored by qPCR. Values are normalized against GAPDH. (FIG. 9C) Monitoring of p21 expression upon the indicated treatments. (SCR=Scramble shRNA, NI=Not Infected, HDACi=HDAC inhibitor=SAHA or TSA).
NB4 cells were treated with HDAC inhibitors, trichostatin A (TSA) and suberoylanilide hydroxamic acid (SAHA), in combination with p21-shRNA or scramble shRNA (SCR). NB4 cells with p21 knock-down without HDAC inhibitor treatment (p21KD-DMSO), NB4 cells without p21 knock-down and without HDAC inhibitor treatment (Scr-DMSO), untreated UF1 cells (UF1-DMSO) were included as control.

In the case of `O=C(CCCCCCC(=O)Nc1ccccc1)NO` [SAHA, suberoylanilide hydroxamic acid], the “p21 expression in NB4 cells” value is reported as “induced p21 expression”.

Reference: patent publication US12576083B2, “Combinational therapy of LSD1 inhibitors with P21 activators in the treatment of cancer” (Istituto Europeo di Oncologia S.r.l., priority 2017, dated 2026)
